Measured values reported in PubChem BioAssay (NCI).
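1) Cells in 96-well plates. 2) Compound, 48 h, 5 concentrations. 3) Linear interpolation between surrounding doses. 4) Unreached endpoint = highest concentration. Definition used: TGI = concentration required for complete inhibition of growth.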

Key:
Experiment in all cases: DTP human tumour cell line panel, 48 h
SR leukemia = tested on: SR leukemia
SF-268 CNS = tested on: SF-268 CNS
SK-MEL-2 melanoma = tested on: SK-MEL-2 melanoma
RXF 393 renal = tested on: RXF 393 renal
T-47D breast = tested on: T-47D breast
COLO 205 colon = tested on: COLO 205 colon
RPMI-8226 leukemia = tested on: RPMI-8226 leukemia
OVCAR-8 ovarian = tested on: OVCAR-8 ovarian
NCI-H522 lung = tested on: NCI-H522 lung
CAKI-1 renal = tested on: CAKI-1 renal
MOLT-4 leukemia = tested on: MOLT-4 leukemia
U251 CNS = tested on: U251 CNS
MALME-3M melanoma = tested on: MALME-3M melanoma
UACC-62 melanoma = tested on: UACC-62 melanoma
OVCAR-4 ovarian = tested on: OVCAR-4 ovarian
A549 NSCLC = tested on: A549 NSCLC
HOP-62 NSCLC = tested on: HOP-62 NSCLC
SK-MEL-5 melanoma = tested on: SK-MEL-5 melanoma
KM12 colon = tested on: KM12 colon
UO-31 renal = tested on: UO-31 renal

SMILES | TGI (SR leukemia) [µM] | TGI (SF-268 CNS) [µM] | TGI (SK-MEL-2 melanoma) [µM] | TGI (RXF 393 renal) [µM] | TGI (T-47D breast) [µM] | TGI (COLO 205 colon) [µM] | TGI (RPMI-8226 leukemia) [µM] | TGI (OVCAR-8 ovarian) [µM] | TGI (NCI-H522 lung) [µM] | TGI (CAKI-1 renal) [µM] | TGI (MOLT-4 leukemia) [µM] | TGI (U251 CNS) [µM] | TGI (MALME-3M melanoma) [µM] | TGI (UACC-62 melanoma) [µM] | TGI (OVCAR-4 ovarian) [µM] | TGI (A549 NSCLC) [µM] | TGI (HOP-62 NSCLC) [µM] | TGI (SK-MEL-5 melanoma) [µM] | TGI (KM12 colon) [µM] | TGI (UO-31 renal) [µM]
CCc1ccc(/C=C/C(=O)C2CN(CC)CCC2(O)/C=C/c2ccc(CC)cc2)cc1 (stereo not given) | 3.99 | 12 | 18.7 | 8.43 | 10.1 | 6.21 | 5.24 | 11.6 | 4.79 | 18.7 | 6.03 | 3.41 | 20 | 16.2 | 14.7 | 20 | 3.54 | 11.2 | 3.5 | 11.6
CCCCCC(=Nc1n[nH]nc1C(N)=O)OCC | > 100 | > 100 | > 100 | > 100 | > 100 | > 100 | > 100 | > 100 | > 100 | > 100 | > 100 | > 100 | > 100 | > 100 | > 100 | > 100 | > 100 | > 100 | > 100 | > 100
CC1OC(OCC2OC(Oc3ccc(C4CC(=O)c5c(O)cc(O)cc5O4)cc3O)C(O)C(O)C2O)C(O)C(O)C1O (stereo not given) | > 100 | > 100 | > 100 | > 100 | > 100 | > 100 | > 100 | > 100 | > 100 | > 100 | > 100 | > 100 | > 100 | > 100 | > 100 | > 100 | > 100 | > 100 | > 100 | > 100
O=c1c2ccccc2nc2sc(/N=C/C=C/c3ccccc3)nn12 | > 100 | > 100 | > 100 | > 100 | > 100 | > 100 | > 100 | > 100 | > 100 | > 100 | > 100 | > 100 | > 100 | > 100 | > 100 | > 100 | > 100 | > 100 | > 100 | > 100
C=C(CO)[C@H]1Oc2ccc(C(C)=O)cc2[C@@H]1O | > 100 | > 100 | > 100 | > 100 | > 100 | > 100 | > 100 | > 100 | > 100 | > 100 | > 100 | > 100 | > 100 | > 100 | > 100 | > 100 | > 100 | > 100 | > 100 | > 100
O=C1CSC(c2ccccc2O)N1c1nc2cc3sc(N4C(=O)CSC4c4ccccc4O)nc3cc2s1 (stereo not given) | > 100 | > 100 | > 100 | > 100 | > 100 | > 100 | > 100 | > 100 | > 100 | > 100 | > 100 | > 100 | > 100 | > 100 | > 100 | > 100 | > 100 | > 100 | > 100 | > 100
N=c1oc2ccccc2cc1C(=O)Nc1nccs1 | 47.7 | > 100 | 65.4 | > 83.9 | > 84 | 45.6 | 50.5 | > 92.4 | 3.82 | > 88.1 | 22.1 | > 100 | > 100 | > 100 | > 74.2 | > 100 | 64.7 | > 100 | > 100 | 0.22
CC(C)NC(=O)OCc1c(COC(=O)NC(C)C)c(-c2cc[n+](COC(=O)C(C)C)cc2)n2c1CCC2 | > 63.3 | > 100 | > 100 | 62.5 | > 100 | > 100 | > 100 | > 100 | > 100 | > 94.8 | 99.2 | > 100 | > 100 | > 100 | > 100 | > 100 | > 100 | > 100 | > 100 | > 100
